pIC50: −log10 of the molar value. Read-outs that look alike come from different tables or passages of the source.
Key:
[1] = molecular target: T1, bovine testis hyaluronidase (Bos taurus, UniProt Q2YDK3); assay: Hyaluronidase inhibition test (turbidimetric, 96-well); assay type: biochemical; settings: for IC50: read-out: HYAL inhibitory activity (IC50) (converted)
T1 construct: purchased Sigma-Aldrich; host or cells: bovine testis (tissue-derived preparation)
T1 sequence (Q2YDK3 36-553): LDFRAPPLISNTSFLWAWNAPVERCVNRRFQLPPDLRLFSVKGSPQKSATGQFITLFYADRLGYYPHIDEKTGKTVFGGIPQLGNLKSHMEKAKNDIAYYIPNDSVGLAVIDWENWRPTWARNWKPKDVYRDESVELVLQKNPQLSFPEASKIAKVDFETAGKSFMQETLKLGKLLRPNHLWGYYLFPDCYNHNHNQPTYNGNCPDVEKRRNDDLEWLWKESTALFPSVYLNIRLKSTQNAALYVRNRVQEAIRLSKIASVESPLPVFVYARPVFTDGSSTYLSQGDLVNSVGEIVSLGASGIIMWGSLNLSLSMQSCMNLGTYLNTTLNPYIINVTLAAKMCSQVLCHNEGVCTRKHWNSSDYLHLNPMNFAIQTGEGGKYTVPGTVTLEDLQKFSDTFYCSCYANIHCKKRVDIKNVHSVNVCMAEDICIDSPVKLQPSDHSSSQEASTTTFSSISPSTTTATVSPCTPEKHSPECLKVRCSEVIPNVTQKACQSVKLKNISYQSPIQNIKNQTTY
Method: (§1) Heparin sodium salt was purchased from WZF Polfa (Warsaw, Poland). HPLC grade solvents (methanol and orthophosphoric acid) were from Avantor Performance Materials (Avantor PM, Gliwice, Poland). All other chemicals and solvents were of analytical grade and supplied by Avantor PM. In all analyses redistilled water was used. Enzymatic tests were done using 96-well plates and monitored using a Synergy 4 microplate reader (BioTek, Winooski, VT, USA). Column chromatography (CC) was performed on silica gel 60 G (0.2–0.5 mm, Macherey-Nagel, Düren, Germany). Analytical TLC was carried out on silica gel 60 G precoated plates (Merck, Warsaw, Poland) using horizontal DC chambers (Chromdes, Lublin, Poland). Flash chromatography was carried out on an Interchim puriFlash^TM 430evo chromatograph (Interchim Inc., San Pedro, CA, USA) equipped with a UV-Vis detector scanning in the wavelength range of 200–600 nm, a fraction collector, and Interchim puriFlash Silica HC (50 µm, 72 mm × 15 mm, 4 g) preparative columns. The flow rate was 7 mL/min. The mobile phase consisted of petroleum ether (A), chloroform (B), and methanol (C). A linear gradient system was used for elution (A:B:C): 0–9 min, 75:25:0 (v/v/v); 9–10 min, 49:49:2; 10–15 min, 45:45:10. Before injection, samples were dissolved in chloroform. Melting points (uncorrected) were determined on a Boetius apparatus (Carl Zeiss, Jena, Germany). UV-Vis spectra, before and after adding ionization and complexation reagents, were recorded at 25 °C on a UV-1601 Spectrophotometer (Rayleigh, Beijing, China) in methanol, according to Mabry et al.. ESI-MS spectra were measured on a UHPLC-3000 RS chromatograph (Dionex, Dreieich, Germany) equipped with a dual low-pressure gradient pump, an autosampler, a diode array detector, and an AmaZon SL ion trap mass spectrometer with an ESI interface (Bruker Daltonik, Bremen, Germany). IR spectra were recorded in KBr on a Bruker Alpha FT-IR spectrometer (Bruker Daltonik). Optical rotation ( [α]D20 ) was measured in chloroform on a PolAAr 3001 polarimeter (Optical Activity, Ramsey, UK). ^1H-NMR, ^13C-NMR, ^1H-^1H COSY, HMQC, and HMBC spectra were recorded at 25 °C on a Bruker Daltonik III 600 MHz spectrometer in CDCl3 and with TMS as the internal standard.
Inhibitory activity of the tested analytes (extracts and individual compounds) was determined by turbidimetric method adapted for 96-well microtiter plates as described previously. The protocol was started by adding 20 μL of the tested analyte solution in monosodium phosphate buffer (pH = 7.0) to 40 μL of hyaluronidase solution (22.55 U/mL) in monosodium phosphate buffer (pH = 7.0) and the mixture was incubated at 37.0 ± 0.1 °C in the dark for 10 min. After this time 40 μL of hyaluronic acid solution (0.03%, w/v) in monosodium phosphate buffer (pH = 5.35) was added and the mixture was further incubated at 37.0 ± 0.1 °C in the dark for 45 min. Finally 300 μL of bovine serum albumin solution (0.1%, w/v) in sodium acetate buffer (pH = 3.75) was added to the mixture and incubated in room temperature for 10 min. Changes in turbidity were measured at 600 nm. […] At each level three independent experiments were carried out in duplicate. Heparin was used as a positive control. Activity of the tested analytes was calculated as inhibition percentage (% Inhibition) of hyaluronidase according to the Equation (1): (1) % Inhibition=100×(1−(AHA−AAN/AHA−AHYAL)), where AHA—absorbance of solution without the enzyme, AHYAL—absorbance of solution without the tested analyte (negative control), AAN—absorbance of solution with the tested analyte.

[2] = molecular target: T2, lipoxygenase from soybean (Glycine max, UniProt P08170); assay: Lipoxygenase inhibition test (spectrophotometric, 96-well); assay type: biochemical; settings: for IC50: tested 50−1000 μg/mL, linoleic acid substrate, pH 9.0, mean ± SD (n = 3 × 2), read-out: LOX inhibitory activity (IC50) (converted)
T2 construct: purchased Sigma-Aldrich; host or cells: soybean (plant-derived preparation)
T2 sequence (P08170 1-839): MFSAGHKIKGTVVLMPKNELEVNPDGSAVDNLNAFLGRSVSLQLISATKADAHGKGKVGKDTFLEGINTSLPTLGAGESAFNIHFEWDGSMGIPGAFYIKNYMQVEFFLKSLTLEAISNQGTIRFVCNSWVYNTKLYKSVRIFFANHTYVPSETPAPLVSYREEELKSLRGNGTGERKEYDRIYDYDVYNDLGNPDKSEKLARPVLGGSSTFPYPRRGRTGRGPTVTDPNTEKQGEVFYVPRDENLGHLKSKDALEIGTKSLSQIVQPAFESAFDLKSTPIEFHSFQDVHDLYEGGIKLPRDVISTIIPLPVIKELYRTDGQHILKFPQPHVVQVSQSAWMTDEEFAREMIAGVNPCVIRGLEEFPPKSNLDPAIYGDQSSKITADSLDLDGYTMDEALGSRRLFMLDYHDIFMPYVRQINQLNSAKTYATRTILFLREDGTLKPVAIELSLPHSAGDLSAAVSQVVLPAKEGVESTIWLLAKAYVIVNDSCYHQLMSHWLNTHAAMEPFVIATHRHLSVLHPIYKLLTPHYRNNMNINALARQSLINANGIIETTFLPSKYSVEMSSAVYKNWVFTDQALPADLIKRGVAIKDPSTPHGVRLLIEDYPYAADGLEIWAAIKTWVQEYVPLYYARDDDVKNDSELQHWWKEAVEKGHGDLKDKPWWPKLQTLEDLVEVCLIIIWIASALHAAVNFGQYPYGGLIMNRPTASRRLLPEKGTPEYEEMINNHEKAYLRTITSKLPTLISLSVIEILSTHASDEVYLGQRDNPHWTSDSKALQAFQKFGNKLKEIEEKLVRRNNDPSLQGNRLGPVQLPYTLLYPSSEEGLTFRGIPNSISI
Method: as §1
Inhibitory activity of the tested analytes (extracts and individual compounds) was determined by a spectrophotometric method adjusted to a 96-well microtiter plates according to Granica et al.. The protocol was started by adding 50 μL of the tested analyte solution in sodium borate buffer (pH = 9.0), then 50 μL of linoleic acid solution (134 μM) was added, followed by 50 μL of lipoxygenase solution (167 U/mL) in sodium borate buffer (pH = 9.0). The reaction mixture was vigorously shaken and changes in absorbance were measured at 234 nm over a period of 15 min with 1 min intervals. […] At each level three independent experiments were carried out in duplicate. Indomethacin was used as a positive control. Activity of the tested analytes was calculated as inhibition percentage (% Inhibition) of lipoxygenase according to Equation (2): (2) % Inhibition=100×(1−(AAN−ALA/ALOX)), where AAN—absorbance of solution with the tested analyte, ALA—absorbance of solution without the enzyme, ALOX—absorbance of solution without the tested analyte (negative control). The absorbance value in the 10th minute of the reaction were used for the calculation.

[3] = tested 100−1000 μg/mL, hyaluronic acid substrate, 37 °C, mean ± SD (n = 3 × 2)

Compound	IC50 [1, 3] [µM]	IC50 [2] [µM]	HYAL inhibitory activity (IC50) [1, 3] [µg/mL]	inhibitory activity towards hyaluronidase in the tested concentration range ([1]; tested concentration range 100−1000 μg/mL)	pIC50 [2]
COc1cc2oc(-c3ccc(O)cc3)c(OC)c(=O)c2c(O)c1C [DL, 4′,5-dihydroxy-3,7-dimethoxy-6-methylflavone]	1320	920			
CC1(C)CC[C@]2(C(=O)O)CC[C@]3(C)C(=CC[C@@H]4[C@@]5(C)CC[C@H](O)C(C)(C)[C@@H]5CC[C@]43C)[C@@H]2C1 [OA, oleanolic acid]					2.69
CC[C@H](CC[C@@H](C)[C@H]1CC[C@H]2[C@@H]3CC=C4C[C@@H](O)CC[C@]4(C)[C@H]3CC[C@]12C)C(C)C [β-SIT, β-sitosterol]	1650	1910			
C[C@H]1[C@H](C)CC[C@]2(C(=O)O)CC[C@]3(C)C(=CC[C@@H]4[C@@]5(C)CC[C@H](O)C(C)(C)[C@@H]5CC[C@]43C)[C@H]12 [UA, ursolic acid]	832				2.79
COC(=O)c1ccccc1 [BM, methyl benzoate]	5700				2.56
COc1cc2oc(-c3ccc(O)cc3)cc(=O)c2c(O)c1C [DS, 4′,5-dihydroxy-7-methoxy-6-methylflavone]	1570	1120			
CCCCCCCCCCCCCCCCCCCCCC [DOC, docosane]	> 3220	2640		no inhibitory activity	

The next lines start with results.

IC50 [1, 3] [µM]	IC50 [2] [µM]	HYAL inhibitory activity (IC50) [1, 3] [µg/mL]	inhibitory activity towards hyaluronidase in the tested concentration range ([1]; tested concentration range 100−1000 μg/mL)	Compound	pIC50 [2]
		366.24 ± 14.72		heparin [HP, reference compound]	
1590	540			CC1=CC(=O)CC(C)(C)C1(O)C=CC(C)O [VO, (6S,9R)-6-hydroxy-3-oxo-α-ionol]	
	259			COc1ccc2c(c1)c(CC(=O)O)c(C)n2C(=O)c1ccc(Cl)cc1 [IND, indomethacin, reference compound]	
5220	2570			COC(=O)c1ccccc1O [SM, methyl salicylate]	

Source: paper PMC6155426, “Metabolite Profiling of Eastern Teaberry (Gaultheria procumbens L.) Lipophilic Leaf Extracts with Hyaluronidase and Lipoxygenase Inhibitory Activity” (Molecules : A Journal of Synthetic Chemistry and Natural …, 2017)
